Experimental data published in patent US7365080B2, “Pharmaceutical compositions comprising thieno[2,3-c]pyridine derivatives and use thereof” (Rimonyx Pharmaceuticals Ltd., priority 2003, dated 2008).
pIC50: −log10 of the molar value.

How the values were obtained:
L-Selectin = target: T1, L-Selectin (Homo sapiens, UniProt P14151); test: ELISA: inhibition of L-selectin/IgG binding to immobilized heparin (Heparin-BSA); conditions: L-Selectin binding to heparin
T1 construct: purchased Research and Development Systems 728-LS
T1 sequence (P14151 39-332 limits assumed): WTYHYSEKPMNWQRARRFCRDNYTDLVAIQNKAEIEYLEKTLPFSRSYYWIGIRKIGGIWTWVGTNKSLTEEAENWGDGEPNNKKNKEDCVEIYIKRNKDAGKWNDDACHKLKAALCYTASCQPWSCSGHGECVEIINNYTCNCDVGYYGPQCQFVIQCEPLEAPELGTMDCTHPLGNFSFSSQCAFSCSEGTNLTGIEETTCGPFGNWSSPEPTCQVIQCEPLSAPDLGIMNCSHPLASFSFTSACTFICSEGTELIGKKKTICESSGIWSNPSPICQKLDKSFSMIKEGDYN
Method: The inhibitory effect of the compounds of the present invention can be evaluated by several methods in vitro. One assay for measuring GAG-ECAM binding, exemplified herein below, detects the binding of L selectin/IgG to immobilized heparin. Another assay utilizes immobilized L-selectin, or L-selectin fused to protein domains other than IgG. The amount of bound L-selectin is determined by an ELISA assay using, for example, a monoclonal antibody raised against L-selectin, which is conjugated to horseradish peroxidase. […] The Dregg-55 antibody was also shown to inhibit L-selectin-dependent adhesion in vitro, neutrophil accumulation in vitro and inflammation in vivo (Co M. S. et al, Immunotechnology 493: 253-266, 1999).
An in vitro assay was used to assess the ability of test compounds according to formula I to inhibit the interactions of L-selectin with HS-GAGs. The assay was suitable for determining the concentration required for 50% inhibition (IC-50) for each specific compound. In the assay, the GAG used was heparin. Thus, porcine intestinal mucosa heparin conjugated to Bovine Serum Albumin (Heparin-BSA; Sigma Cat. No. H0403) at […] in Phosphate Buffered Saline (PBS; pH 6.5) was added to a 96 well polystyrene ELISA plate (NUNC Cat. No. 442404; 0.1 ml per well) and incubated Over Night (ON) at 4° C. Following the incubation, the plate was washed thoroughly, by immersion, with de-ionized water and PBS (pH 6.5). The ELISA plate was then blocked with BSA (ICN Cat. No.160069, 3%, 200 μl per well) for 1 hour at Room Temperature (RT). Following blocking, the plate was washed with de-ionized water, and then with PBS (pH 6.5) containing Tween 20 (Sigma Cat. No. P-1379, 0.05%). Compounds were synthesized or purchased from ChemDiv Labs (San Diego, Calif.), dissolved in DMSO, diluted in PBS and added to the wells at various concentrations in the range of 0.01 to 300 μM. Recombinant Human L-Selectin/IgG (Research and Development Systems Cat. No.728-LS) dissolved in PBS supplemented with BSA (0.1%) and calcium chloride (1 mM) was added to the ELISA plate (100 μl per well) and incubated for 60 minutes at RT with shaking. Following incubation, the plate was washed with de-ionized water and three times with PBS (pH 6.5) containing Tween 20. Anti-Human IgG Peroxidase Conjugate (1:5000; Sigma Product No. A8667) diluted in PBS supplemented with BSA (0.1%) and calcium chloride (1 mM) was added to the ELISA plate (100 μl per well) and incubated for 30 minutes at RT with shaking. The plate was then washed with de-ionized water and three times with PBS (pH 6.5) containing Tween 20. The peroxidase substrate cromogen, TMB (Dako Cat. No. S1599) was added (100 μl per well) to the ELISA plate and incubated at room temperature. After 15 minutes ELISA Stop Solution (hydrochloric acid 1N, sulfuric acid 3N) was added (200 μl per well) to stop the peroxidase catalyzed colorimetric reaction. The Optical Density (OD) of the samples was measured at 450 nm using an ELISA plate reader (Dynatech MR5000). Data were analyzed with Graphpad Prism software and IC-50 values were established. The P-selectin assay was carried out in a similar fashion, except that Recombinant Human P-Selectin/IgG (Research and Development Systems Cat.No.137-PS) was used.

[1] = tested on: Human T-lymphocytes on human endothelial cells; test: T-lymphocyte rolling on endothelial cells under shear flow; type: cell-based; conditions: for inhibition at 25 µM: Homo sapiens, high shear flow, read-out: inhibition of cell rolling; for % rolling: test compound (25 μM), shear flow
Method: Human T-lymphocytes were passed over a layer of human endothelial cells according to the method of Lawrence and Springer (Cell 65: 859-873, 1991). At high shear flow, migrating T-lymphocytes adhered transiently and intermittently to the endothelial cells as a consequence of HS-GAG-ECAM interaction. The resulting T-cell rolling was recorded by video camera and the number of rolling cells per defined area during a constant period of time was determined. Soluble heparin (competitor of cell surface GAGs) abolished T-cell rolling under high shear flow conditions. Compounds no. 1, 11 and 25, each at 25 μM, inhibited cell rolling by 90, 90 and 70%, respectively.

[2] = tested on: MOLT-4 (Acute lymphoblastic leukemia); test: Inhibition of leukemia cell growth (SRB); type: cell-based; conditions: MOLT4; 10^−8-10^−4 Molar, 48 hours
Method: (§1) Each cell line (RPMI-8226 (Multiple Myeloma), MOLT-4 (Acute lymphoblastic leukemia), CCR-CEM (Human T Cell leukemia), K562 (Chronic myeloid leukemia), SR (Chronic myeloid leukemia) was pre-incubated on a microtiter plate (Monks A et al, J. Natl. Cancer Inst., 83:757-766, 1991). Inhibitor compounds were then added at different concentrations (10^−8-10^−4 Molar) and the culture incubated for 48 hours. A sulforhodamine B (SRB) protein assay was used to estimate cell viability or growth (Skehan P et al, J. Natl. Cancer Inst., 82:1107-1112, 1990). Compound no. 1 inhibited the growth of the cell lines RPMI-8226, MOLT4, CCR-CEM, K562 and SR to 100%, 100%, 100%, 100% and 93%, respectively. There was negligible cell death (less than 15%).

[3] = tested on: SR (Chronic myeloid leukemia); test: Inhibition of leukemia cell growth (SRB); type: cell-based; conditions: 10^−8-10^−4 Molar, 48 hours
Method: as §1

[4] = tested on: CCR-CEM (Human T Cell leukemia); test: Inhibition of leukemia cell growth (SRB); type: cell-based; conditions: 10^−8-10^−4 Molar, 48 hours
Method: as §1

[5] = tested on: RPMI-8226 (Multiple Myeloma); test: Inhibition of leukemia cell growth (SRB); type: cell-based; conditions: 10^−8-10^−4 Molar, 48 hours
Method: as §1

[6] = tested on: K562 (Chronic myeloid leukemia); test: Inhibition of leukemia cell growth (SRB); type: cell-based; conditions: 10^−8-10^−4 Molar, 48 hours
Method: as §1

[7] = tested on: RPMI-8226, MOLT-4, CCR-CEM, K562, SR; test: Leukemia cell lines (SRB): cell death; type: cell-based; conditions: 48 hours
Method: as §1

SF-268 (glioma) = test: Inhibition of growth of cancer cell lines (alamar blue); type: cell-based; conditions: Homo sapiens, 48 hours
Method: (§2) Each cell line (MCF7 (Breast carcinoma), NCI-H460 (Non-small cell lung carcinoma), and SF-268 (glioma) was pre-incubated on a microtiter plate. Inhibitor compounds were then added at a concentration of 0.1 μM and the culture incubated for 48 hours. End-point determinations were made with alamar blue (Gray G D, Wickstrom E, Biotechniques 21(5) 780-782, 1996). Results for each compound are presented as the percent of growth of the treated cells as compared to the untreated cells. Compounds, which reduce the growth of any one of the cell lines to approximately 32% or less were considered suitable for further and more extensive study (Monks A et al, J. Natl. Cancer Inst., 83:757-766, 1991. Compound no. 1 inhibited the growth of the cell lines MCF7, NCI-H460, and SF-268 by 99%, 100% and 99%, respectively.

[8] = tested on: NCI-H460 (Non-small cell lung carcinoma); test: as above; type: cell-based; conditions: Homo sapiens, 48 hours
Method: as §2

MCF7 (Breast carcinoma) = test: as above; type: cell-based; conditions: Homo sapiens, 48 hours
Method: as §2

Lewis rats = test: Experimental Autoimmune Encephalomyelitis (MBP p87-99); type: in vivo, rat; conditions: intra-peritoneal once daily for 3 days, 10 and 35 mg/kg
Excerpt: In autoimmune conditions, T cells reactive to self-antigens escape elimination in the thymus and are activated in the periphery, where they can provoke damage in specific organs. EAE, a model of autoimmune disease that is induced in Lewis rats, bears many similarities to the human disease Multiple Sclerosis (MS). T cells found in brain lesions of MS patients have TCR junctional rearrangements that are identical to T cells found in the spinal cords of Lewis rats immunized with a peptide of myelin basic protein MBP p87-99. In addition, a major T and B cell response in MS patients is directed to MBP p87-99.
EAE is induced in rats by immunization with MBP p87-99. The inhibitor Compounds are administered once daily by intra-peritoneal injection for 3 consecutive days starting 1 day before the appearance of EAE symptoms (day 12 after EAE induction). The degree of clinical disease is scored as follows: 0=no signs; 1=loss of tail tonicity; 2=paralysis of hind limbs; 3=paralysis of all four limbs 4=quadriplegic animal in a moribund state.

Mice = test: TNBS induced colitis (Inflammatory Bowel Disease model); type: in vivo, mouse
Method: Control mice (12 per group) were injected intraperitoneally (IP) with Test Compound (TC) Vehicle (Tween 80, 5%, 200 μl). […] The control and experimental mice were injected once per day for 7 successive days. […] 11 in the same experimental model. The compound was administered once a day for 7 days in a suspension with 0.5% methylcellulose per os. There were 12 mice per group and the control mice received 0.5% methylcellulose only. Compound no.

BALB/c mice = test: Thioglycollate-induced leukocyte and neutrophil infiltration into mouse peritoneum; type: in vivo; conditions: intraperitoneal, 1 hour before thioglycollate; 3 hours
Method: The ability of compounds of the present invention to reduce leukocyte migration to sites of acute inflammation was evaluated in BALB/c mice using a thioglycolate-induced model of peritonitis. In this animal model, interactions of L- and P-selectin with HS-GAGs have been implicated in neutrophil infiltration (Nelson, R. M., 82:3253-3258, 1993; Xie, X. et al., J. Biol. Chem., 275:34818-34825, 2000).
BALB/c mice (6 weeks old, ˜20 g in weight, 15 mice/group) received intraperitoneal injection of an inhibitor compound in 0.2 ml DMSO/Tween/sterile saline 1 hour before administration of thioglycollate (Sigma). Control groups received vehicle and sham controls received no thioglycollate. Mice were injected intraperitoneally with 1 ml of 3% thioglycollate broth (Xie, X. et al., J. Biol. Chem., 275, 34818-34825, 2000). Mice were sacrificed after 3 hours, and the peritoneal cavities were ravaged with […] of ice-cold saline containing 2 mM EDTA to prevent clotting. After red blood cell lysis, leukocytes were counted in a hemocytometer. Neutrophils were counted after staining with Türck. Data was expressed as mean±SEM, and statistical analysis was performed by Student t test. A value of P<0.05 was taken to denote statistical significance.

[9] = tested on: immobilized heparin / L-selectin/IgG; test: Assay 1: direct interaction with heparin, pre-incubation versus co-incubation with L-selectin; type: binding; conditions: compound 0.1-200 μM, 90 min, washed before L-selectin/IgG
Method: Inhibitor Compounds at final concentration 0.1-200 μM were incubated in the ELISA plate for 90 min, and then washed with incubation buffer. After washing, L-selectin/IgG was added to the wells pre-incubated with compounds. At the same time, in separate control wells, L-selectin was co-incubated with inhibitor Compounds for 90 min. Following the incubation, L-selectin bound to the plate was quantified by antibody conjugated to Horse Radish Peroxidase and OD measurement as performed as described in Example 5.

| Compound | pIC50 (L-Selectin) | inhibition at 25 µM [1] [%] | % rolling [1] [%] | growth inhibited to [2] [%] | growth inhibited to [3] [%] | growth inhibited to [4] [%] | growth inhibited to [5] [%] | growth inhibited to [6] [%] | cell death [7] | inhibition at 0.1 µM (SF-268 (glioma)) [%] | inhibition at 0.1 µM [8] [%] | inhibition at 0.1 µM (MCF7 (Breast carcinoma)) [%] | clinical signs of EAE (in words) (Lewis rats) | colonic damage (score 0 to 10), in words (Mice; IP once per day for 7 days, 10 and 35 mg/kg) | colonic damage (score 0 to 10), in words (Mice; per os once a day for 7 days, 3, 50 and 100 mg/kg) | leukocyte migration into the peritoneal cavity (in words) (BALB/c mice) | level of inhibition of L-selectin binding to heparin, pre-incubation versus co-incubation [9] |
| --- | --- | --- | --- | --- | --- | --- | --- | --- | --- | --- | --- | --- | --- | --- | --- | --- | --- |
| CC(C)N1CCc2c(sc(NC(=O)c3ccc(S(=O)(=O)N4CCc5ccccc5C4)cc3)c2C(N)=O)C1 [Compound 1, 2-[[(4-(3,4-dihydro-2(1H)-isoquinolinyl)sulfonyl]benzoyl]amino]-6-(1-methylethyl)-4,5,6,7-tetrahydrothieno[2,3-c]pyridine-3-carboxamide] | 4.89 | 90 | 30 | 100 | 93 | 100 | 100 | 100 | less than 15% | 99 | 100 | 99 | – | – | – | – | – |
| CCN1CCc2c(sc(NC(=O)c3ccc(S(=O)(=O)N(CC)CC)cc3)c2-c2nc3ccccc3s2)C1 [Compound 11, 2-[[4-[(diethylamino)sulfonyl]benzoyl]amino]-3-(benzothiazol-2-yl)-6-ethyl-4,5,6,7-tetrahydrothieno[2,3-c]pyridine] | 6.46 | 90 | <10 | – | – | – | – | – | – | – | – | – | significantly inhibited | significantly inhibited | significantly inhibited | inhibited efficiently | same level of inhibition |
